Among the data in ChEMBL document CHEMBL4665712, “Phosphonium-ammonium-based di-cationic ionic liquids as antibacterial over the ESKAPE group” (Bioorg Med Chem Lett, 2020) are MIC and Activity values, retold here.

For orientation: MIC means the least concentration at which growth counts as inhibited.

One series deals with Acinetobacter baumannii. The series is described as follows: Antibacterial activity against Acinetobacter baumannii ATCC 19606. The settings on record: ATCC 19606 = CIP 70.34 = JCM 6841. It is filed as functional.
The test system of another series is Escherichia coli. The series can be described thus: Antibacterial activity against Escherichia coli CIP 54.8. The format is functional.
A further series relates to Klebsiella pneumoniae. The series can be described thus: Antibacterial activity against Klebsiella pneumoniae CIP 82.91. It is filed as functional.
Another series relates to Pseudomonas aeruginosa. The series is described as follows: Antibacterial activity against Pseudomonas aeruginosa 100720. The format is functional.
The subject of the next series is Enterococcus faecium. The series can be described thus: Antibacterial activity against Enterococcus faecium 20477. The format is functional.
A further series deals with HepG2. The series is described as follows: Cytotoxicity against human HepG2 cells assessed as reduction in cell viability. The format is cell-based.
A further series deals with Staphylococcus aureus. The series can be described thus: Antibacterial activity against Staphylococcus aureus CIP 7625. The format is functional.

Regarding `CCCCCC[P+](CCCCCC)(CCCCCC)CCCCCCCCCC[P+](CCCC)(CCCC)CCCC.[Br-].[Br-]`, the minimum inhibitory concentration (MIC) in the series with Acinetobacter baumannii is 8 µg/mL; in the series with Escherichia coli, 4 µg/mL; against Klebsiella pneumoniae, 16 µg/mL; with Pseudomonas aeruginosa, 64 µg/mL; against Enterococcus faecium it was 2 µg/mL; in the series on Staphylococcus aureus, 0.5 µg/mL. The Activity result in the series on HepG2 is reported as “Toxic”.

As for `CCCCCC[N+](CCCCCC)(CCCCCC)CCCCCCCCCC[P+](CCCCCC)(CCCCCC)CCCCCC.[Br-].[Br-]`, the minimum inhibitory concentration (MIC) in the series on Acinetobacter baumannii is 8 µg/mL; with Escherichia coli, 2 µg/mL; against Klebsiella pneumoniae it was 2 µg/mL; against Pseudomonas aeruginosa, 8 µg/mL; in the series on Enterococcus faecium, 1 µg/mL; in the series with Staphylococcus aureus, 0.5 µg/mL. The Activity result in the series on HepG2 is on record as “Toxic”.

As to `CCCCCCCC[P+](CCCCCCCC)(CCCCCCCC)CCCCCC[P+](CCCCCC)(CCCCCC)CCCCCC.[Br-].[Br-]`, the MIC was determined as 4 µg/mL against Acinetobacter baumannii; 8 µg/mL against Escherichia coli; 4 µg/mL with Klebsiella pneumoniae; 8 µg/mL in the series on Pseudomonas aeruginosa; 2 µg/mL in the series on Enterococcus faecium; 1 µg/mL in the series on Staphylococcus aureus.

Turning to `CCCCCC[P+](CCCCCC)(CCCCCC)CCCCCCCCCC[P+](CCCCCC)(CCCCCC)CCCCCC.[I-].[I-]`, the MIC came to 2 µg/mL in the series with Acinetobacter baumannii; 2 µg/mL with Escherichia coli; 2 µg/mL in the series with Klebsiella pneumoniae; 2 µg/mL in the series on Pseudomonas aeruginosa; 0.5 µg/mL in the series with Enterococcus faecium; 0.5 µg/mL in the series on Staphylococcus aureus.

As to `CCCC[P+](CCCC)(CCCC)CCCCCC[P+](CCCC)(CCCC)CCCC.[Br-].[Br-]`, the minimal inhibitory concentration (MIC) against Acinetobacter baumannii, against Escherichia coli, in the series with Klebsiella pneumoniae, against Pseudomonas aeruginosa, against Enterococcus faecium and against Staphylococcus aureus was above 64 µg/mL in each case.

For the compound `CCCCCC[N+](CCCCCC)(CCCCCC)CCCCCC[P+](CCCC)(CCCC)CCCC.[Br-].[Br-]`, the MIC in the series on Acinetobacter baumannii is above 64 µg/mL; with Escherichia coli, above 64 µg/mL; against Klebsiella pneumoniae, above 64 µg/mL; against Pseudomonas aeruginosa, above 64 µg/mL; against Enterococcus faecium, 64 µg/mL; against Staphylococcus aureus, 32 µg/mL.

Regarding `CCCCCC[P+](CCCCCC)(CCCCCC)CCCCCCCCCC[P+](CCCCCC)(CCCCCC)CCCCCC.[Br-].[Br-]`, the minimum inhibitory concentration (MIC) in the series on Acinetobacter baumannii is 4 µg/mL; in the series with Escherichia coli, 2 µg/mL; against Klebsiella pneumoniae, 4 µg/mL; in the series on Pseudomonas aeruginosa, 4 µg/mL; against Enterococcus faecium, 1 µg/mL; against Staphylococcus aureus, 0.5 µg/mL. Further, the Activity result in the series with HepG2 is reported as “Toxic”.

In the case of `CCCCCC[N+](CCCCCC)(CCCCCC)CCCCCCCCCC[N+](CCCCCC)(CCCCCC)CCCCCC.[Br-].[Br-]`, the MIC came out at 16 µg/mL with Acinetobacter baumannii; 2 µg/mL against Escherichia coli; 4 µg/mL with Klebsiella pneumoniae; 8 µg/mL with Pseudomonas aeruginosa; 0.5 µg/mL in the series on Enterococcus faecium; 0.5 µg/mL against Staphylococcus aureus. The Activity result with HepG2 was “Toxic”.

Take `CCCCCC[P+](CCCCCC)(CCCCCC)CCCCCC[P+](CCCCCC)(CCCCCC)CCCCCC.[Br-].[Br-]`: the MIC against Acinetobacter baumannii is 16 µg/mL; against Escherichia coli it was 4 µg/mL; with Klebsiella pneumoniae it was 8 µg/mL; in the series on Pseudomonas aeruginosa, 8 µg/mL; in the series on Enterococcus faecium it was 0.5 µg/mL; with Staphylococcus aureus it was 0.5 µg/mL.

As for `CCCCCC[P+](CCCCCC)(CCCCCC)CCCCCCCCCC[P+](CCCCCC)(CCCCCC)CCCCCC.[Cl-].[Cl-]`, the MIC against Acinetobacter baumannii stood at 2 µg/mL; against Escherichia coli, 2 µg/mL; with Klebsiella pneumoniae, 2 µg/mL; with Pseudomonas aeruginosa it was 4 µg/mL; against Enterococcus faecium, 0.5 µg/mL; against Staphylococcus aureus it was 0.5 µg/mL.

With `CCCCCC[N+](CCCCCC)(CCCCCC)CCCCCCCCCC[P+](CCCC)(CCCC)CCCC.[Br-].[Br-]`, the minimal inhibitory concentration (MIC) with Acinetobacter baumannii is above 64 µg/mL; in the series on Escherichia coli, 16 µg/mL; against Klebsiella pneumoniae, 64 µg/mL; in the series with Pseudomonas aeruginosa it was above 64 µg/mL; in the series with Enterococcus faecium, 2 µg/mL; against Staphylococcus aureus it was 1 µg/mL.

With `CCCCCCCC[P+](CCCCCCCC)(CCCCCCCC)CCCCCCCCCC[P+](CCCCCCCC)(CCCCCCCC)CCCCCCCC.[Br-].[Br-]`, the MIC was above 64 µg/mL in the series on Acinetobacter baumannii; above 64 µg/mL against Escherichia coli; above 64 µg/mL against Klebsiella pneumoniae; above 64 µg/mL with Pseudomonas aeruginosa; 32 µg/mL with Enterococcus faecium; 16 µg/mL in the series with Staphylococcus aureus. Further, the Activity entry in the series with HepG2 was “Toxic”.

In the case of `CCCCCC[N+](CCCCCC)(CCCCCC)CCCCCC[N+](CCCCCC)(CCCCCC)CCCCCC.[Br-].[Br-]`, the minimum inhibitory concentration (MIC) with Acinetobacter baumannii was above 64 µg/mL; against Escherichia coli, 32 µg/mL; with Klebsiella pneumoniae, above 64 µg/mL; against Pseudomonas aeruginosa it was above 64 µg/mL; with Enterococcus faecium it was 1 µg/mL; against Staphylococcus aureus it was 1 µg/mL.

Turning to `CCCCCC[P+](CCCCCC)(CCCCCC)CCCCCC[P+](CCCC)(CCCC)CCCC.[Br-].[Br-]`, the MIC in the series with Acinetobacter baumannii was above 64 µg/mL; in the series with Escherichia coli it was above 64 µg/mL; in the series on Klebsiella pneumoniae, above 64 µg/mL; with Pseudomonas aeruginosa, above 64 µg/mL; in the series on Enterococcus faecium it was 8 µg/mL; in the series on Staphylococcus aureus, 2 µg/mL.

On to `CCCCCCCC[P+](CCCCCCCC)(CCCCCCCC)CCCCCC[P+](CCCCCCCC)(CCCCCCCC)CCCCCCCC.[Br-].[Br-]`, for which the MIC with Acinetobacter baumannii is 8 µg/mL; against Escherichia coli, 32 µg/mL; in the series on Klebsiella pneumoniae, 32 µg/mL; in the series on Pseudomonas aeruginosa, above 64 µg/mL; against Enterococcus faecium, 2 µg/mL; against Staphylococcus aureus, 1 µg/mL.

For the compound `CCCC[P+](CCCC)(CCCC)CCCCCCCCCC[P+](CCCC)(CCCC)CCCC.[Br-].[Br-]`, the minimal inhibitory concentration (MIC) was above 64 µg/mL in the series on Acinetobacter baumannii; above 64 µg/mL in the series on Escherichia coli; above 64 µg/mL against Klebsiella pneumoniae; above 64 µg/mL in the series on Pseudomonas aeruginosa; above 64 µg/mL in the series with Enterococcus faecium; 16 µg/mL against Staphylococcus aureus. Besides, in the series on HepG2, the Activity entry is “Toxic”.
